The subject of data set [1] is Mus musculus. As to the kind of experiment: Anorexigenic activity in C57BL/6J mouse assessed as reduction in ghrelin-induced food intake at 0.6 nmol/g body weight, sc measured after 2 hrs post dose. The data set is classed as functional, organism-based.
The subject of data set [2] is Mus musculus. The experiment in a line: Effect on food intake in C57BL/6J mouse at 0.6 nmol/g body weight, sc measured after 2 hrs post dose. The data set is classed as ADME, organism-based. The conditions noted are these: in vivo.
Data set [3] addresses T1, Growth hormone secretagogue receptor type 1 (Homo sapiens, UniProt Q92847). The experiment in a line: Competitive antagonist activity at SNAP-tagged human GHSR expressed in HEK293T cells assessed as reduction in ghrelin-induced inositol phosphate production at 1 uM after 30 mins by HTRF assay. It is filed as functional, cell-based. The settings on record: read-out: pA2 (converted).

The target of data set [4] is T1, Growth hormone secretagogue receptor type 1. The experiment in a line: Inverse agonist activity at SNAP-tagged human GHSR expressed in HEK293T cells assessed as reduction in inositol phosphate production after 30 mins by HTRF assay. The data set is classed as functional, cell-based. (In TR-FRET formats the signal depends on donor and acceptor labels being close together.)

The target is the same in data set [5]. The experiment in a line: Competitive antagonist activity at human SNAP-tagged GHSR expressed in HEK293T cells assessed as reduction in ghrelin-induced calcium production at 1 uM after 15 mins by Fluo 4-AM dye-based fluorescence assay. The settings on record: read-out: pA2 (converted). It is filed as functional, cell-based.
Data set [6] has the same target. As to the kind of experiment: Displacement of […] from SNAP-tagged human GHSR expressed in HEK293T cells after 3 hrs by HTRF assay. The data set is classed as cell-based. (Loss of bound radioactivity is the signal in a displacement assay; it reports binding, not function.)
Data set [7] has as its target Growth hormone secretagogue receptor type 1 (Rattus norvegicus) (UniProt O08725). The experiment in a line: Inverse agonist activity at GHSR in Wistar rat pancreatic islets assessed as inhibition of ghrelin-induced insulinostatic action after 1 hr in presence of glucose.

Each structure is given as a SMILES string. Activity calls are given as the source filed them. No cut-off for these calls is given here. Positions of bridges follow the written chain, without caps; N, C: chain ends. Non-standard residues stand in square brackets, D forms with d. Residues, ends and D or L forms follow the SMILES beside them. Nle = CCCC[C@H](N)C(=O)O

T1 sequence (Q92847 whole entry): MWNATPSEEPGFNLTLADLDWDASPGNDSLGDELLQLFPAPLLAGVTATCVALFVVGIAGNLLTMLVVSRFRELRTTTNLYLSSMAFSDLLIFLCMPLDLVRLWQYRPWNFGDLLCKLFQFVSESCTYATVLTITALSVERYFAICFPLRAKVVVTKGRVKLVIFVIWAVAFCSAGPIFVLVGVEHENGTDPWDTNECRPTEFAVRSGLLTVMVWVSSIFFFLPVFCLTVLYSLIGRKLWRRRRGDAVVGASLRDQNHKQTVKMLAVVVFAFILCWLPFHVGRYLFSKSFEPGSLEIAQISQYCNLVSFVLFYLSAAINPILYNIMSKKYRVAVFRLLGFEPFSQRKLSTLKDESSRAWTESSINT
Growth hormone secretagogue receptor type 1 (Rattus norvegicus), sequence (O08725 whole entry, looked up): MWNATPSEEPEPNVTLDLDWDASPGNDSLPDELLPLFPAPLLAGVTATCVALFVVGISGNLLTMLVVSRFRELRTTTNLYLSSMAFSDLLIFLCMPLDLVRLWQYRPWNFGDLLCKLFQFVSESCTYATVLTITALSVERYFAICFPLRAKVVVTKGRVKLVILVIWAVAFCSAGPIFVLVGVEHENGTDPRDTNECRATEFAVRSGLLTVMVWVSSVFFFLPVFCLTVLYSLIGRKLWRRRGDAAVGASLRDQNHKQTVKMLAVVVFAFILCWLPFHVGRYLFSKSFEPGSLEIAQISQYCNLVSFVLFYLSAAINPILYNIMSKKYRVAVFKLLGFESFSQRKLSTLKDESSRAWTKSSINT

With `CC(C)C[C@H](NC(=O)[C@H](CO)NC(=O)[C@@H]1CSSC[C@@H]2NC(=O)[C@H](CCC(=O)O)NC(=O)[C@H](CO)NC(=O)[C@@H](CC(=O)O)NC(=O)[C@@H](CC(=O)O)NC(=O)[C@@H](CCCNC(=N)N)NC(=O)[C@H](NC(=O)[C@@H](CO)NC(=O)[C@@H](C)N)CSSC[C@H](NC(=O)[C@H](CC(C)C)NC(=O)[C@H](CCCNC(=N)N)NC(=O)[C@H]([C@@H](C)O)NC(=O)[C@H]([C@@H](C)O)NC2=O)C(=O)N[C@@H](CCCNC(=N)N)C(=O)N[C@@H](CCCCN)C(=O)N[C@@H](CCCNC(=N)N)C(=O)N[C@@H](CCCNC(=N)N)C(=O)N1)C(=O)N[C@@H](CO)C(=O)N[C@H](C(=O)N[C@@H](C)C(=O)N[C@@H](CCC(N)=O)C(=O)N[C@@H](CCC(=O)O)C(=O)O)C(C)C`, in the data set with Mus musculus [1], the result was inactive.
Same read-out and setting: with `CCCC[C@H](N)C(=O)N[C@H](C(=O)N1CCC[C@H]1C(=O)N[C@@H](Cc1ccccc1)C(=O)N[C@@H](Cc1c[nH]c2ccccc12)C(=O)N[C@@H](CCCNC(=N)N)C(=O)NCC(=O)N[C@H](C(=O)N[C@@H](CO)C(=O)N[C@@H](CC(C)C)C(=O)N[C@@H](CCCNC(=N)N)C(=O)N1CCC[C@H]1C(=O)N[C@H](C(=O)NCC(=O)N[C@H](C)C(=O)N[C@H](CO)C(=O)N[C@@H]1CSSC[C@@H]2NC(=O)[C@H](CC(C)C)NC(=O)[C@H](CCCNC(=N)N)NC(=O)[C@H]([C@@H](C)O)NC(=O)[C@H]([C@@H](C)O)NC(=O)[C@H](CSSC[C@@H](C(=O)N[C@@H](CO)C(=O)N[C@@H](CC(C)C)C(=O)N[C@@H](CO)C(=O)N[C@H](C(=O)N[C@@H](C)C(=O)N[C@@H](CCC(N)=O)C(=O)N[C@@H](CCC(=O)O)C(=O)O)C(C)C)NC(=O)[C@H](CCCNC(=N)N)NC(=O)[C@H](CCCNC(=N)N)NC(=O)[C@H](CCCCN)NC(=O)[C@H](CCCNC(=N)N)NC2=O)NC(=O)[C@H](CCC(=O)O)NC(=O)[C@H](CO)NC(=O)[C@@H](CC(=O)O)NC(=O)[C@@H](CC(=O)O)NC(=O)[C@@H](CCCNC(=N)N)NC1=O)[C@@H](C)CC)C(C)C)[C@@H](C)O` the entry was “Active”.
Consider `CC[C@H](C)[C@@H]1NC(=O)[C@@H]2CSSC[C@@H](C(=O)N[C@@H](CO)C(=O)N[C@@H](CC(C)C)C(=O)N[C@@H](CO)C(=O)N[C@H](C(=O)N[C@@H](C)C(=O)N[C@@H](CCC(N)=O)C(=O)N[C@@H](CCC(=O)O)C(=O)O)C(C)C)NC(=O)[C@H](CCCNC(=N)N)NC(=O)[C@H](CCCNC(=N)N)NC(=O)[C@H](CCCCN)NC(=O)[C@H](CCCNC(=N)N)NC(=O)[C@H](CSSC[C@H](NC(=O)[C@H](CO)NC(=O)[C@H](C)N)C(=O)N[C@@H](CCCNC(=N)N)C(=O)N[C@@H](CC(=O)O)C(=O)N[C@@H](CC(=O)O)C(=O)N[C@@H](CO)C(=O)N[C@@H](CCC(=O)O)C(=O)N2)NC(=O)[C@H](CC(C)C)NC(=O)[C@H](CCCNC(=N)N)NC(=O)[C@H]([C@@H](C)O)NC1=O` (H-ASCRDDSECITRLCRKRRCSLSVAQE-OH; disulfide 3-14, 9-19), for which, in the data set with Mus musculus [2], the Activity result is “Non-Toxic”.
The EC50 is the midpoint of the concentration-response curve. Broadly, the Ki is a dissociation constant, usually derived from enzyme kinetics or from competition with a known ligand. A high value points to weaker binding. For `CC[C@H](C)[C@@H]1NC(=O)[C@@H]2CSSC[C@@H](C(=O)N[C@@H](CO)C(=O)N[C@@H](CC(C)C)C(=O)N[C@@H](CO)C(=O)N[C@H](C(=O)N[C@@H](C)C(=O)N[C@@H](CCC(N)=O)C(=O)N[C@@H](CCC(=O)O)C(=O)O)C(C)C)NC(=O)[C@H](CCCNC(=N)N)NC(=O)[C@H](CCCNC(=N)N)NC(=O)[C@H](CCCCN)NC(=O)[C@H](CCCNC(=N)N)NC(=O)[C@H](CSSC[C@H](NC(=O)[C@H](CO)NC(=O)[C@H](C)NC(=O)CNC(=O)[C@@H](NC(=O)[C@@H]3CCCN3C(=O)[C@H](CCCNC(=N)N)NC(=O)[C@H](CC(C)C)NC(=O)[C@H](CO)NC(=O)[C@@H](NC(=O)CNC(=O)[C@H](CCCNC(=N)N)NC(=O)[C@H](Cc3c[nH]c4ccccc34)NC(=O)[C@H](Cc3ccccc3)NC(=O)[C@@H]3CCCN3C(=O)[C@@H](NC(=O)[C@@H](N)CCSC)[C@@H](C)O)C(C)C)[C@@H](C)CC)C(=O)N[C@@H](CCCNC(=N)N)C(=O)N[C@@H](CC(=O)O)C(=O)N[C@@H](CC(=O)O)C(=O)N[C@@H](CO)C(=O)N[C@@H](CCC(=O)O)C(=O)N2)NC(=O)[C@H](CC(C)C)NC(=O)[C@H](CCCNC(=N)N)NC(=O)[C@H]([C@@H](C)O)NC1=O` (H-MTPFWRGVSLRPIGASCRDDSECITRLCRKRRCSLSVAQE-OH; disulfide 17-28, 23-33), the Kb in data set [3] is 1.48 nM; in data set [5] it was 10.2 nM. The EC50 in data set [4] came out at 22.8 nM. Besides, the Activity entry in the data set with Mus musculus [2] was “Non-Toxic”. Also, the inhibition constant Ki in data set [6] worked out at 1.26 nM.
Take `CCCC[C@H](N)C(=O)N[C@H](C(=O)N1CCC[C@H]1C(=O)N[C@@H](Cc1ccccc1)C(=O)N[C@@H](Cc1c[nH]c2ccccc12)C(=O)N[C@@H](CCCNC(=N)N)C(N)=O)[C@@H](C)O` (H-[Nle]TPFWR-NH2): the EC50 in data set [4] is 6630 nM. The molecule further came in with an inhibition constant Ki in data set [6] of 55 nM.
In the same order, the values of `CCCC[C@H](N)C(=O)N[C@H](C(=O)N1CCC[C@H]1C(=O)N[C@@H](Cc1ccccc1)C(=O)N[C@@H](Cc1c[nH]c2ccccc12)C(=O)N[C@@H](CCCNC(=N)N)C(=O)NCC(=O)N[C@H](C(N)=O)C(C)C)[C@@H](C)O` (H-[Nle]TPFWRGV-NH2) are 368 nM and 6.45 nM.
In the same order, the values of `CCCC[C@H](N)C(=O)N[C@H](C(=O)N1CCC[C@H]1C(=O)N[C@@H](Cc1ccccc1)C(=O)N[C@@H](Cc1c[nH]c2ccccc12)C(=O)N[C@@H](CCCNC(=N)N)C(=O)NCC(=O)N[C@H](C(=O)N[C@@H](CO)C(=O)N[C@@H](CC(C)C)C(N)=O)C(C)C)[C@@H](C)O` (H-[Nle]TPFWRGVSL-NH2) are 134 nM and 3.4 nM.
Take `CCCC[C@H](N)C(=O)N[C@H](C(=O)N1CCC[C@H]1C(=O)N[C@@H](Cc1ccccc1)C(=O)N[C@@H](Cc1c[nH]c2ccccc12)C(=O)N[C@@H](CCCNC(=N)N)C(=O)NCC(=O)N[C@H](C(=O)N[C@@H](CO)C(=O)N[C@@H](CC(C)C)C(=O)N[C@@H](CCCNC(=N)N)C(=O)N1CCC[C@H]1C(N)=O)C(C)C)[C@@H](C)O` (H-[Nle]TPFWRGVSLRP-NH2): in data set [4], the concentration for a half-maximal effect (EC50) was found to be 46 nM. In addition, in the data set on Mus musculus [2], the Activity result is reported as “Non-Toxic”. Besides, the outcome (in data set [7]; in the data set with Mus musculus [1]) was Active. For the same molecule, affinity in data set [6] was put at a Ki of 2.7 nM.
Turning to `CCCC[C@H](N)C(=O)N[C@H](C(=O)N1CCC[C@H]1C(=O)N[C@@H](Cc1ccccc1)C(=O)N[C@@H](Cc1c[nH]c2ccccc12)C(=O)N[C@@H](CCCNC(=N)N)C(=O)NCC(=O)N[C@H](C(=O)N[C@@H](CO)C(=O)N[C@@H](CC(C)C)C(=O)N[C@@H](CCCNC(=N)N)C(=O)N1CCC[C@H]1C(=O)N[C@H](C(=O)NCC(N)=O)[C@@H](C)CC)C(C)C)[C@@H](C)O` (H-[Nle]TPFWRGVSLRPIG-NH2), the EC50 in data set [4] was 48 nM. For the same molecule, the inhibition constant Ki in data set [6] is 3.05 nM.
Turning to `CCCC[C@H](N)C(=O)N[C@H](C(=O)N1CCC[C@H]1C(=O)N[C@@H](Cc1ccccc1)C(=O)N[C@@H](Cc1c[nH]c2ccccc12)C(=O)N[C@@H](CCCNC(=N)N)C(=O)NCC(=O)N[C@H](C(=O)N[C@@H](CO)C(=O)N[C@@H](CC(C)C)C(=O)N[C@@H](CCCNC(=N)N)C(=O)N1CCC[C@H]1C(=O)N[C@H](C(=O)NCC(=O)O)[C@@H](C)CC)C(C)C)[C@@H](C)O` (H-[Nle]TPFWRGVSLRPIG-OH), the Kb is 34.7 nM in data set [3] and 89.1 nM in data set [5]. Moreover, the EC50 in data set [4] was 76.4 nM. This molecule gave a Ki in data set [6] of 3.66 nM.

Values taken from ChEMBL document CHEMBL4368902 (J Med Chem, 2019).
